Patent publication US11041000B2, “Peptide inhibitors of interleukin-23 receptor and their use to treat inflammatory diseases” (priority 2019, dated 2021)
Numbered stars: 1 amine (or outer) side, 2 acyl side, 3 side chain; on linkers, the order of the positions; unused ones are H or OH. Bridge positions count the residues as written; N and C are the ends. Square brackets hold non-standard residues; d marks the D form. Peptide text beside a SMILES is read from it. Trp(7-Me) = Cc1cccc2c(C[C@H](N)C(=O)O)c[nH]c12; Abu(4-yl) = O=C([C@H](CC[*:3])N[*:1])[*:2]; 2Nal = N[C@@H](Cc1ccc2ccccc2c1)C(=O)O; AEF = NCCOc1ccc(C[C@H](N)C(=O)O)cc1; Cit = NC(=O)NCCC[C@H](N)C(=O)O; Pen = CC(C)(S)[C@H](N)C(=O)O; αMeK = C[C@](N)(CCCCN)C(=O)O; Aib = CC(C)(N)C(=O)O; βAla = NCCC(=O)O

Assays:
Type in all cases: in vitro ADME
Stability in rat plasma = conditions: both sexes, SD rat plasma, EDTA, 37° C., read-out: t½: Rat Plasma EDTA (converted)
Description: Peptides of interest (20 μM) were incubated with pre-warmed rat plasma (SD rat, mixed gender pooled, EDTA, filtered through 0.22 μm, BioreclamationIVT) at 37° C. […] Quenched samples were stored at 4° C. until the end of the experiment and centrifuged at 4,000 rpm for 10 minutes. The supernatant were diluted 1:1 with deionized water and analyzed using LC-MS. Percentage remaining at each time point was calculated based on the peak area ratio (analyte over internal standard) relative to the initial level at time zero. Half-lives were calculated by fitting to a first-order exponential decay equation using GraphPad.

[1] = Stability in cynomolgus monkey fecal homogenate; conditions: 20% fecal homogenate (supernatant), pH 6.8, 20% cynomolgus monkey fecal homogenate, anaerobic, 37° C., read-out: t½: Monkey Feces anaerobic (converted)
Description: (§1) Centrifuged the homogenate at 2800×g for 15 min. The supernatant is taken out and used for incubations. […] The final test compound concentration was 20 μM.

[2] = Stability in human fecal homogenate; conditions: 20% fecal homogenate (supernatant), pH 6.8, 20% human fecal homogenate, anaerobic, 37° C., read-out: t½: Human Feces anaerobic (converted)
Description: as §1

[3] = Stability in simulated intestinal fluid (SIF); conditions: simulated intestinal fluid with pancreatin, pH 6.8, 37° C., matrix is 100 fold dilution of standard SIF concentration; for half-life at 20 μM: read-out: SIF t½ (converted); for SIF t½: 20 μM
Description: SIF was prepared by adding 6.8 g of monobasic potassium phosphate and 10.0 g of pancreatin to 1.0 L of water. After dissolution, the pH was adjusted to 6.8 using NaOH. DMSO stocks (2 mM) were first prepared for the test compounds. Aliquots of the DMSO solutions were dosed into 6 individual tubes, each containing 0.5 mL of SIF, which is pre-warmed to 37° C. The final test compound concentration was 20 μM. The vials were kept in a benchtop Thermomixer® for the duration of the experiment. At each timepoint (0, 5, 10, 20, 40, 60, or 360 minutes or 24 hours), 1.0 mL of acetonitrile containing 1% formic acid was added to one vial to terminate the reaction. Samples were stored at 4° C. until the end of the experiment. After the final timepoint is sampled, the tubes were mixed and then centrifuged at 3,000 rpm for 10 minutes. Aliquots of the supernatant were removed, diluted 1:1 into distilled water containing internal standard, and analyzed by LCMS/MS. Percent remaining at each timepoint was calculated based on the peak area response ratio of test to compound to internal standard. Time 0 was set to 100%, and all later timepoints were calculated relative to time 0. Half-lives were calculated by fitting to a first-order exponential decay equation using Graphpad.

For `CC(=O)NCCCC[C@@H]1NC(=O)[C@H](Cc2c[nH]c3c(C)cccc23)NC(=O)[C@H]([C@@H](C)O)NC(=O)[C@@H](CC(N)=O)NC(=O)[C@@H](NC(C)=O)C(C)(C)SSC(C)(C)[C@@H](C(=O)N[C@@H](Cc2ccc(OCCN)cc2)C(=O)N[C@@H](Cc2ccc3ccccc3c2)C(=O)N[C@@](C)(CCCCN)C(=O)N[C@@H](CCCCNC(C)=O)C(=O)N[C@@H](CC(N)=O)C(=O)N[C@H](CC(C)C)C(N)=O)NC1=O` [compound 338], the half-life at 20 μM (Stability in rat plasma) was > 24 h, the half-life at 20 μM [1] was > 24 h and the half-life at 20 μM [2] was > 24 h.
With `CC(=O)NCCCC[C@@H]1NC(=O)[C@H](Cc2c[nH]c3c(C)cccc23)NC(=O)[C@H]([C@@H](C)O)NC(=O)[C@H](CC(N)=O)NC(=O)[C@@H](NC(C)=O)C(C)(C)SSC(C)(C)[C@@H](C(=O)N[C@@H](Cc2ccc(OCCN)cc2)C(=O)N[C@@H](Cc2ccc3ccccc3c2)C(=O)N[C@@](C)(CCCCN)C(=O)N[C@@H](CCCCNC(C)=O)C(=O)N[C@@H](CC(N)=O)C(=O)N[C@H](C(N)=O)C(C)C)NC1=O` [compound 250] the half-life at 20 μM [3] was 11 h and the half-life at 20 μM [2] was > 19.5 h.
With `CC(=O)NCCCC[C@@H]1NC(=O)[C@H](Cc2c[nH]c3c(C)cccc23)NC(=O)[C@H]([C@@H](C)O)NC(=O)[C@H](CC(N)=O)NC(=O)[C@@H](NC(C)=O)C(C)(C)SSC(C)(C)[C@@H](C(=O)N[C@@H](Cc2ccc(OCCN)cc2)C(=O)N[C@@H](Cc2ccc3ccccc3c2)C(=O)N[C@@](C)(CCCCN)C(=O)N[C@@H](CCCCNC(C)=O)C(=O)N[C@@H](CC(N)=O)C(=O)N[C@@H](Cc2c[nH]cn2)C(N)=O)NC1=O` [SEQ ID No. 248, Ac-[Pen]-NT-[W(7-Me)]-[Lys(Ac)]-[Pen]-Phe[4-(2-aminoethoxy)]-[2-Nal]-[a-MeLys]-[Lys(Ac)]-N-H-NH2] the half-life at 20 μM [3] was 32 h and the half-life at 20 μM [2] was > 22.3 h.
For `CC(=O)NCCCC[C@H](NC(=O)[C@](C)(CCCCN)NC(=O)[C@H](Cc1ccc2ccccc2c1)NC(=O)[C@H](Cc1ccc(OCCN)cc1)NC(=O)[C@H]1NC(=O)[C@H](CCCNC(N)=O)NC(=O)[C@H](Cc2c[nH]c3c(C)cccc23)NC(=O)[C@H]([C@@H](C)O)NC(=O)[C@H](CC(N)=O)NC(=O)[C@@H](NC(C)=O)C(C)(C)SSC1(C)C)C(=O)N[C@@H](CC(N)=O)C(=O)NC(C)(C)C(=O)N[C@@H](CCCNC(=N)N)C(N)=O` [compound 343] (Ac-[Pen]NT[Trp(7-Me)][Cit][Pen][AEF][2Nal][αMeK]K(Ac)N[Aib]R-NH2; disulfide 1-6), the half-life at 20 μM (Stability in rat plasma) was > 24 h, the half-life at 20 μM [3] was 13 h and the half-life at 20 μM [2] was 12 h.
In the case of `CC(=O)NCCCC[C@@H]1NC(=O)[C@H](Cc2c[nH]c3c(C)cccc23)NC(=O)[C@H]([C@@H](C)O)NC(=O)[C@H](CC(N)=O)NC(=O)[C@@H](NC(C)=O)C(C)(C)SSC(C)(C)[C@@H](C(=O)N[C@@H](Cc2ccc(OCCN)cc2)C(=O)N[C@@H](Cc2ccc3ccccc3c2)C(=O)N[C@@](C)(CCCCN)C(=O)N[C@@H](CCCCNC(C)=O)C(=O)N[C@@H](CC(N)=O)C(=O)NCCC(N)=O)NC1=O` [compound 242], the “SIF t½” value [3] is reported as 24 h.
With `CC(=O)NCCCC[C@H](NC(=O)[C@](C)(CCCCN)NC(=O)[C@H](Cc1ccc2ccccc2c1)NC(=O)[C@H](Cc1ccc(OCCN)cc1)NC(=O)[C@H]1NC(=O)[C@H](CCCCNC(=O)CC(F)(F)F)NC(=O)[C@H](Cc2c[nH]c3c(C)cccc23)NC(=O)[C@H]([C@@H](C)O)NC(=O)[C@H](CC(N)=O)NC(=O)[C@@H](NC(C)=O)C(C)(C)SSC1(C)C)C(=O)N[C@@H](CC(N)=O)C(=O)N[C@H](CC(C)C)C(N)=O` [compound 319] the half-life at 20 μM (Stability in rat plasma) was > 24 h, the half-life at 20 μM [1] was > 24 h and the half-life at 20 μM [2] was > 24 h.
`CC(=O)NCCCC[C@H](NC(=O)[C@](C)(CC(C)C)NC(=O)[C@H](Cc1ccc2ccccc2c1)NC(=O)[C@H](Cc1ccc(OCCN)cc1)NC(=O)[C@H]1NC(=O)[C@H](CCC(N)=O)NC(=O)[C@H](Cc2c[nH]c3c(C)cccc23)NC(=O)[C@H]([C@@H](C)O)NC(=O)[C@H](CC(N)=O)NC(=O)[C@@H](NC(C)=O)C(C)(C)SSC1(C)C)C(=O)N[C@H](CO)C(=O)NCCC(N)=O` [compound 222] showed a half-life at 20 μM [3] of 19 h.
With `CC(=O)NCCCC[C@@H]1NC(=O)[C@H](Cc2c[nH]c3c(C)cccc23)NC(=O)[C@H]([C@@H](C)O)NC(=O)[C@H](CC(N)=O)NC(=O)[C@@H](NC(C)=O)C(C)(C)SSC(C)(C)[C@@H](C(=O)N[C@@H](Cc2ccc(OCCN)cc2)C(=O)N[C@@H](Cc2ccc3ccccc3c2)C(=O)N[C@@](C)(CCCCN)C(=O)N[C@@H](CCCCNC(C)=O)C(=O)N[C@@H](CC(N)=O)C(=O)N[C@@H](CCCNC(N)=O)C(N)=O)NC1=O` [compound 249] the half-life at 20 μM [3] was 3 h and the half-life at 20 μM [2] was > 17 h.
Molecule `CC(=O)NCCCC[C@H](NC(=O)[C@](C)(CC(C)C)NC(=O)[C@H](Cc1ccc2ccccc2c1)NC(=O)[C@H](Cc1ccc(OCCN)cc1)NC(=O)[C@H]1NC(=O)[C@H](CCC(N)=O)NC(=O)[C@H](Cc2c[nH]c3c(C)cccc23)NC(=O)[C@H]([C@@H](C)O)NC(=O)[C@H](CC(N)=O)NC(=O)[C@@H](NC(C)=O)C(C)(C)SSC1(C)C)C(=O)N[C@H](C)C(=O)NCCC(N)=O` [compound 209] has a half-life at 20 μM [3] of 15 h.
In the case of `CC(=O)NCCCC[C@H](NC(=O)[C@](C)(CCCCN)NC(=O)[C@H](Cc1ccc2ccccc2c1)NC(=O)[C@H](Cc1ccc(OCCN)cc1)NC(=O)[C@H]1NC(=O)[C@H](CCC(N)=O)NC(=O)[C@H](Cc2c[nH]c3c(C)cccc23)NC(=O)[C@H]([C@@H](C)O)NC(=O)[C@H](CCCNC(N)=O)NC(=O)[C@@H](NC(C)=O)C(C)(C)SSC1(C)C)C(=O)N[C@@H](CC(N)=O)C(=O)NCCC(N)=O` [compound 238] (Ac-[Pen][Cit]T[Trp(7-Me)]Q[Pen][AEF][2Nal][αMeK]K(Ac)N[βAla]-NH2; disulfide 1-6), the “SIF t½” value [3] is reported as 24 h.
For `CC(=O)NCCCC[C@@H]1NC(=O)[C@H](Cc2c[nH]c3c(C)cccc23)NC(=O)[C@H]([C@@H](C)O)NC(=O)[C@H](CCC(N)=O)NC(=O)[C@@H](NC(=O)[C@@H](CCCNC(=N)N)NC(C)=O)CCSC[C@@H](C(=O)N[C@@H](Cc2ccc(OCCN)cc2)C(=O)N[C@@H](Cc2ccc3ccccc3c2)C(=O)N[C@@](C)(CCCCN)C(=O)N[C@@H](CCCCNC(C)=O)C(=O)N[C@@H](CC(N)=O)C(N)=O)NC1=O` [compound 326] (Ac-[dR][Abu(4-yl)]QT[Trp(7-Me)]K(Ac)C[AEF][2Nal][αMeK]K(Ac)N-NH2; thioether 2-7), the half-life at 20 μM (Stability in rat plasma) was > 24 h and the half-life at 20 μM [3] was 4 h.
With `CC(=O)NCCCC[C@@H]1NC(=O)[C@H](Cc2c[nH]c3c(C)cccc23)NC(=O)[C@H]([C@@H](C)O)NC(=O)[C@H](CC(N)=O)NC(=O)[C@@H](NC(C)=O)C(C)(C)SSC(C)(C)[C@@H](C(=O)N[C@@H](Cc2ccc(OCCN)cc2)C(=O)N[C@@H](Cc2ccc3ccccc3c2)C(=O)N[C@@](C)(CCCCN)C(=O)N[C@@H](CCCCNC(C)=O)C(=O)N[C@@H](CC(N)=O)C(=O)N[C@@H](C(N)=O)C(C)C)NC1=O` [compound 251] the half-life at 20 μM [3] was 20 h.
`CC(=O)NCCCC[C@@H]1NC(=O)[C@H](Cc2c[nH]c3c(C)cccc23)NC(=O)[C@H]([C@@H](C)O)NC(=O)[C@H](CC(N)=O)NC(=O)[C@@H](NC(C)=O)C(C)(C)SSC(C)(C)[C@@H](C(=O)N[C@@H](Cc2ccc(OCCN)cc2)C(=O)N[C@@H](Cc2ccc3ccccc3c2)C(=O)N[C@@](C)(CCCCN)C(=O)N[C@@H](CCCCNC(C)=O)C(=O)N[C@@H](CC(N)=O)C(=O)N2CCC[C@H]2C(N)=O)NC1=O` [compound 253] showed a half-life at 20 μM [3] of 10 h.
With `CC(=O)NCCCC[C@H](NC(=O)[C@](C)(CCCCN)NC(=O)[C@H](Cc1ccc2ccccc2c1)NC(=O)[C@H](Cc1ccc(OCCN)cc1)NC(=O)[C@H]1NC(=O)[C@H](CCCNC(N)=O)NC(=O)[C@H](Cc2c[nH]c3c(C)cccc23)NC(=O)[C@H]([C@@H](C)O)NC(=O)[C@H](CC(N)=O)NC(=O)[C@@H](NC(C)=O)C(C)(C)SSC1(C)C)C(=O)N[C@@H](CC(N)=O)C(=O)N[C@@H](C(N)=O)[C@H](C)O` [compound 263] (Ac-[Pen]NT[Trp(7-Me)][Cit][Pen][AEF][2Nal][αMeK]K(Ac)N[dT]-NH2; disulfide 1-6) the “SIF t½” value [3] was 24 h.
In the case of `CC(=O)NCCCC[C@@H]1NC(=O)[C@H](Cc2c[nH]c3c(C)cccc23)NC(=O)[C@H]([C@@H](C)O)NC(=O)[C@H](CC(N)=O)NC(=O)[C@@H](NC(C)=O)C(C)(C)SSC(C)(C)[C@@H](C(=O)N[C@@H](Cc2ccc(OCCN)cc2)C(=O)N[C@@H](Cc2ccc3ccccc3c2)C(=O)N[C@@](C)(CCCCN)C(=O)N[C@@H](CCCCNC(C)=O)C(=O)N[C@@H](CC(N)=O)C(=O)N[C@@H](CC(C)C)C(N)=O)NC1=O` [compound 244], the half-life at 20 μM [2] is reported as 15 h.
In the case of `CC(=O)NCCCC[C@@H]1NC(=O)[C@@H](NC(C)=O)C(C)(C)SSC(C)(C)[C@@H](C(=O)N[C@@H](Cc2ccc(OCCN)cc2)C(=O)N[C@@H](Cc2ccc3ccccc3c2)C(=O)N[C@@](C)(CCCCN)C(=O)N[C@@H](CCCCNC(C)=O)C(=O)N[C@@H](CC(N)=O)C(=O)NCCC(N)=O)NC(=O)[C@H](CCC(N)=O)NC(=O)[C@H](Cc2c[nH]c3c(C)cccc23)NC(=O)[C@H]([C@@H](C)O)NC1=O` [compound 239], the “SIF t½” value [3] is reported as 24 h.
In the case of `CCCCCCCC(=O)NCCCC[C@@H]1NC(=O)[C@H](Cc2c[nH]c3c(C)cccc23)NC(=O)[C@H]([C@@H](C)O)NC(=O)[C@H](CC(N)=O)NC(=O)[C@@H](NC(C)=O)C(C)(C)SSC(C)(C)[C@@H](C(=O)N[C@@H](Cc2ccc(OCCN)cc2)C(=O)N[C@@H](Cc2ccc3ccccc3c2)C(=O)N[C@@](C)(CCCCN)C(=O)N[C@@H](CCCCNC(C)=O)C(=O)N[C@@H](CC(N)=O)C(=O)N[C@H](CC(C)C)C(N)=O)NC1=O` [compound 317], the half-life at 20 μM (Stability in rat plasma) is reported as > 24 h, the half-life at 20 μM [1] is reported as > 24 h and the half-life at 20 μM [2] is reported as > 24 h.
